Reference: patent US10538536B2, “Process for the preparation of 2-pyrazolo[1,5-a]pyrazin-2-ylpyrido[1,2-a]pyrimidin-4-one compounds” (Hoffmann-La Roche Inc., priority 2016, dated 2020)

Experiments:
[1] = genotoxicity of side-products of the process with compound (IIIa); settings: side-products formed when compound (IIIa) is used
Text: According to the process herein described when compound (IIIa) is being used compounds of formulae (X) and (XI) may be produced as side-products, which are genotoxic: […]

[2] = relative stability of polymorphs Form A and Form F; format: physicochemical

| SMILES | genotoxicity [1] | drug product robustness ([2]; Form F) | relative thermodynamic stability of polymorphs (enantiotropically related) ([2]; at 80° C. or below, Form F versus Form A) |
| --- | --- | --- | --- |
| CCc1nc(C)cn2nc(-c3nc4c(C)cc(C5CCN(C)CC5)cn4c(=O)c3C(=O)CCl)cc12 [(XI)] | genotoxic |  |  |
| CCc1nc(C)cn2nc(-c3cc(=O)n4cc(C5CCN(C)CC5)cc(C)c4n3)cc12 [Form F, 2-(4-Ethyl-6-methyl-pyrazolo[1,5-a]pyrazin-2-yl)-9-methyl-7-(1-methyl-piperidin-4-yl)-pyrido[1,2-a]pyrimidin-4-one] |  | improve drug product robustness | more stable |
| CCc1nc(C)cn2nc(-c3nc4c(C)cc(C5CCN(C)CC5)cn4c(=O)c3Cl)cc12 [(X)] | genotoxic |  |  |
